Measured values taken from ChEMBL document CHEMBL5576059, “Design, synthesis and molecular docking study of novel triazole-quinazolinone hybrids as antimalarial and antitubercular agents” (Bioorg Med Chem Lett, 2024).
Values after ≈ are worked out from the molar mass of the structure shown.

Key:
[1] = tested on: Plasmodium falciparum; assay: Antimalarial activity against Plasmodium falciparum assessed as inhibition of parasite growth; assay type: functional, organism-based
[2] = tested on: RAW264.7; assay: Cytotoxicity against mouse RAW264.7 cells at 25 microg/ml by MTT assay; assay type: toxicity, cell-based; conditions: dose 25 µg/ml
[3] = tested on: Mycobacterium tuberculosis; assay: Antitubercular activity against Mycobacterium tuberculosis H37RV ATCC27294 assessed as inhibition of bacterial growth by MABA assay; assay type: functional
[4] = Cytotoxicity against mouse RAW264.7 cells assessed as inhibition of cell growth at 81.35 uM by MTT assay relative to control; assay type: toxicity, cell-based
[5] = Cytotoxicity against mouse RAW264.7 cells assessed as inhibition of cell growth at 66.37 uM by MTT assay relative to control; assay type: toxicity, cell-based
[6] = Cytotoxicity against mouse RAW264.7 cells assessed as inhibition of cell growth at 78.29 uM by MTT assay relative to control; assay type: toxicity, cell-based

Structure (SMILES) | IC50 [1] [µM] | Activity [2] | MIC [3] [µM] | inhibition at 81.35 µM [4] [%] | inhibition at 66.37 µM [5] [%] | inhibition at 78.29 µM [6] [%]
CCc1ccc(-n2cc(-c3nc4ccccc4c(=O)[nH]3)nn2)cc1 | 3.25 | Non-Toxic | 78.8 (≈ 25 µg/mL) |  |  | 
O=c1[nH]c(-c2cn(-c3ccc(F)cc3)nn2)nc2ccccc12 | 1.95 | Non-Toxic | > 81.4 |  |  | 
O=c1[nH]c(-c2cn(-c3ccc(Cl)cc3)nn2)nc2ccccc12 | 1.92 | Non-Toxic | 77.2 (≈ 25 µg/mL) |  |  | 
CO[C@H]1/C=C/O[C@@]2(C)Oc3c(C)c(O)c4c(O)c(c(/C=N/N5CCN(C)CC5)c(O)c4c3C2=O)NC(=O)/C(C)=C\C=C\[C@H](C)[C@H](O)[C@@H](C)[C@@H](O)[C@@H](C)[C@H](OC(C)=O)[C@@H]1C [RIFAMPIN] |  |  | 0.13 (≈ 0.107 µg/mL) |  |  | 
Cc1cc(C)c(-n2cc(-c3nc4ccccc4c(=O)[nH]3)nn2)c(C)c1 | 2.9 | Non-Toxic | > 75.4 |  |  | 
O=c1[nH]c(-c2cn(-c3cccc(Cl)c3)nn2)nc2ccccc12 | 2.78 | Non-Toxic | > 77.2 |  |  | 
Cc1ccc(-n2cc(-c3nc4ccccc4c(=O)[nH]3)nn2)cc1 | 3.1 | Non-Toxic | > 82.4 |  |  | 
C=C[C@H]1CN2CC[C@H]1C[C@H]2[C@H](O)c1ccnc2ccc(OC)cc12 [QUININE] | 0.826 |  |  |  |  | 
O=c1[nH]c(-c2cn(-c3ccc([N+](=O)[O-])cc3)nn2)nc2ccccc12 | 1.97 | Non-Toxic | 74.8 (≈ 25 µg/mL) |  |  | 
CC[C@@H](CO)NCCN[C@@H](CC)CO [ETHAMBUTOL] |  |  | 7.64 (≈ 1.56 µg/mL) |  |  | 
O=c1[nH]c(-c2cn(-c3ccccc3F)nn2)nc2ccccc12 | 2.21 |  | 40.7 (≈ 12.5 µg/mL) | 27.2 |  | 
Cc1ccc(-n2cc(-c3nc4ccccc4c(=O)[nH]3)nn2)c([N+](=O)[O-])c1 | 2.35 | Non-Toxic | > 71.8 |  |  | 
O=c1[nH]c(-c2cn(-c3ccccc3)nn2)nc2ccccc12 | 2.56 | Non-Toxic | > 86.4 |  |  | 
O=c1[nH]c(-c2cn(-c3ccc(Br)cc3)nn2)nc2ccccc12 | 1.96 |  | 33.2 (≈ 12.2 µg/mL) |  | 29.8 | 
COc1ccc(-n2cc(-c3nc4ccccc4c(=O)[nH]3)nn2)cc1 | 2.63 |  | 19.6 (≈ 6.25 µg/mL) |  |  | 24.3
